# Measured values as given in PubChem BioAssay (NCI).
#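 Where inhibition never reached the appropriate level, the endpoint shown equals the highest concentration tested. Otherwise, values were interpolated linearly from a five-concentration, 48-hour dose response in 96-well plates. GI50 = concentration required for 50% inhibition of growth. TGI is the concentration that stops growth completely.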
# Legend:
# Experiment in all cases: NCI-60 cell line screen, 48 h
# [1] = system: 786-0 renal
# [2] = system: A498 renal
# [3] = system: ACHN renal
# [4] = system: CAKI-1 renal
# [5] = system: CCRF-CEM leukemia
# [6] = system: COLO 205 colon
# [7] = system: DLD-1 colon
# [8] = system: DMS 114 small cell lung
# [9] = system: DMS 273 small cell lung
# [10] = system: HCC-2998 colon
# [11] = system: HCT-116 colon
# [12] = system: HL-60(TB) leukemia
# [13] = system: HOP-62 NSCLC
# [14] = system: HOP-92 NSCLC
# [15] = system: IGROV1 ovarian
# [16] = system: K-562 leukemia
# [17] = system: LXFL 529 NSCLC
# [18] = system: M14 melanoma
# [19] = system: M19-MEL melanoma
# [20] = system: MALME-3M melanoma
# [21] = system: MOLT-4 leukemia
# [22] = system: NCI-H226 lung
# [23] = system: NCI-H23 lung
# [24] = system: NCI-H522 lung
# [25] = system: OVCAR-4 ovarian
# [26] = system: RPMI-8226 leukemia
# [27] = system: SF-268 CNS
# [28] = system: SF-539 CNS
# [29] = system: SK-MEL-2 melanoma
# [30] = system: SK-MEL-28 melanoma
# [31] = system: SK-OV-3 ovarian
# [32] = system: SN12C renal
# [33] = system: SNB-75 CNS
# [34] = system: SNB-78 CNS
# [35] = system: SR leukemia
# [36] = system: UACC-62 melanoma
# [37] = system: UO-31 renal
# [38] = system: XF 498 CNS
# [39] = system: A549 NSCLC
# [40] = system: BT-549 breast
# [41] = system: DU-145 prostate
# [42] = system: EKVX NSCLC
# [43] = system: HCT-15 colon
# [44] = system: HS 578T breast
# [45] = system: HT29 colon
# [46] = system: KM12 colon
# [47] = system: LOX IMVI melanoma
# [48] = system: MCF7 breast
# [49] = system: MDA-MB-231 breast
# [50] = system: MDA-MB-435
# [51] = system: MDA-N
# [52] = system: NCI-H460 lung
# [53] = system: NCI/ADR-RES ovarian
# [54] = system: OVCAR-3 ovarian
# [55] = system: OVCAR-5 ovarian
# [56] = system: OVCAR-8 ovarian
# [57] = system: PC-3 prostate
# [58] = system: RXF 393 renal
# [59] = system: SF-295 CNS
# [60] = system: SK-MEL-5 melanoma
# [61] = system: SW-620 colon
# [62] = system: T-47D breast
# [63] = system: U251 CNS
# [64] = system: UACC-257 melanoma
# [65] = system: HOP-18 NSCLC
# [66] = system: KM20L2 colon
# [67] = system: SNB-19 CNS
# [68] = system: TK-10 renal
structure (smiles),measurement,setting,value
COc1ccc(/C=N/Nc2nc(C)c3c(n2)Nc2ccccc2NC3=O)cc1,TGI,[1],> 100 µM
same,TGI,[2],> 100 µM
same,TGI,[3],> 100 µM
same,TGI,[4],> 100 µM
same,TGI,[5],> 100 µM
same,TGI,[6],> 100 µM
same,TGI,[7],> 100 µM
same,TGI,[8],> 100 µM
same,TGI,[9],> 100 µM
same,TGI,[10],> 100 µM
same,TGI,[11],> 100 µM
same,TGI,[12],> 100 µM
same,TGI,[13],> 100 µM
same,TGI,[14],> 100 µM
same,TGI,[15],> 100 µM
same,TGI,[16],> 100 µM
same,TGI,[17],> 100 µM
same,TGI,[18],> 100 µM
same,TGI,[19],> 100 µM
same,TGI,[20],> 100 µM
same,TGI,[21],> 100 µM
same,TGI,[22],> 100 µM
same,TGI,[23],> 100 µM
same,TGI,[24],> 100 µM
same,TGI,[25],> 100 µM
same,TGI,[26],> 100 µM
same,TGI,[27],> 100 µM
same,TGI,[28],> 100 µM
same,TGI,[29],> 100 µM
same,TGI,[30],> 100 µM
same,TGI,[31],> 100 µM
same,TGI,[32],> 100 µM
same,TGI,[33],> 100 µM
same,TGI,[34],> 100 µM
same,TGI,[35],> 100 µM
same,TGI,[36],> 100 µM
same,TGI,[37],> 100 µM
same,TGI,[38],> 100 µM
Cc1sc2nc3n(c(=O)c2c1C)N=C(c1ccc([N+](=O)[O-])cc1)CS3,TGI,[1],> 100 µM
same,TGI,[2],> 100 µM
same,TGI,[39],> 100 µM
same,TGI,[3],> 100 µM
same,TGI,[40],> 100 µM
same,TGI,[4],> 100 µM
same,TGI,[5],> 100 µM
same,TGI,[6],> 100 µM
same,TGI,[41],> 100 µM
same,TGI,[42],> 100 µM
same,TGI,[10],> 100 µM
same,TGI,[11],> 100 µM
same,TGI,[43],> 100 µM
same,TGI,[12],> 100 µM
same,TGI,[13],> 100 µM
same,TGI,[14],> 100 µM
same,TGI,[44],> 100 µM
same,TGI,[45],> 100 µM
same,TGI,[16],> 100 µM
same,TGI,[46],> 100 µM
same,TGI,[47],> 100 µM
same,TGI,[20],> 100 µM
same,TGI,[48],> 100 µM
same,TGI,[49],> 100 µM
same,TGI,[50],> 100 µM
same,TGI,[51],> 100 µM
same,TGI,[21],> 100 µM
same,TGI,[22],> 100 µM
same,TGI,[23],> 100 µM
same,TGI,[52],> 100 µM
same,TGI,[24],> 100 µM
same,TGI,[53],> 100 µM
same,TGI,[54],> 100 µM
same,TGI,[55],> 100 µM
same,TGI,[56],> 100 µM
same,TGI,[57],> 100 µM
same,TGI,[26],> 100 µM
same,TGI,[58],> 100 µM
same,TGI,[27],> 100 µM
same,TGI,[59],> 100 µM
same,TGI,[28],> 100 µM
same,TGI,[30],> 100 µM
same,TGI,[60],> 100 µM
same,TGI,[31],> 100 µM
same,TGI,[32],> 100 µM
same,TGI,[33],> 100 µM
same,TGI,[35],> 100 µM
same,TGI,[61],> 100 µM
same,TGI,[62],> 100 µM
same,TGI,[63],> 100 µM
same,TGI,[64],> 100 µM
same,TGI,[36],> 100 µM
same,TGI,[37],> 100 µM
Cn1ccnc1C[N-]Cc1nccn1C.O=[N+]([O-])[O-].O=[N+]([O-])[O-].[Cu+2],GI50,[1],> 100 µM
same,TGI,[1],> 100 µM
same,GI50,[39],> 100 µM
same,TGI,[39],> 100 µM
same,GI50,[5],> 100 µM
same,TGI,[5],> 100 µM
same,GI50,[6],> 100 µM
same,TGI,[6],> 100 µM
same,GI50,[7],> 100 µM
same,TGI,[7],> 100 µM
same,GI50,[8],> 100 µM
same,TGI,[8],> 100 µM
same,GI50,[9],73.8 µM
same,TGI,[9],> 100 µM
same,GI50,[42],> 100 µM
same,TGI,[42],> 100 µM
same,GI50,[10],> 100 µM
same,TGI,[10],> 100 µM
same,GI50,[11],> 100 µM
same,TGI,[11],> 100 µM
same,GI50,[12],> 100 µM
same,TGI,[12],> 100 µM
same,GI50,[65],> 100 µM
same,TGI,[65],> 100 µM
same,GI50,[13],> 100 µM
same,TGI,[13],> 100 µM
same,GI50,[45],> 100 µM
same,TGI,[45],> 100 µM
same,GI50,[15],> 100 µM
same,TGI,[15],> 100 µM
same,GI50,[16],> 100 µM
same,TGI,[16],> 100 µM
same,GI50,[46],> 100 µM
same,TGI,[46],> 100 µM
same,GI50,[66],> 100 µM
same,TGI,[66],> 100 µM
same,GI50,[47],> 100 µM
same,TGI,[47],> 100 µM
same,GI50,[17],> 100 µM
same,TGI,[17],> 100 µM
same,GI50,[18],> 100 µM
same,TGI,[18],> 100 µM
same,GI50,[21],> 100 µM
same,TGI,[21],> 100 µM
same,GI50,[22],> 100 µM
same,TGI,[22],> 100 µM
same,GI50,[23],> 100 µM
same,TGI,[23],> 100 µM
same,GI50,[52],62.8 µM
same,TGI,[52],> 100 µM
same,GI50,[24],> 100 µM
same,TGI,[24],> 100 µM
same,GI50,[54],> 100 µM
same,TGI,[54],> 100 µM
same,GI50,[25],2.49 µM
same,TGI,[25],> 100 µM
same,GI50,[56],> 100 µM
same,TGI,[56],> 100 µM
same,GI50,[26],> 100 µM
same,TGI,[26],> 100 µM
same,GI50,[58],> 100 µM
same,TGI,[58],> 100 µM
same,GI50,[27],> 100 µM
same,TGI,[27],> 100 µM
same,GI50,[59],> 100 µM
same,TGI,[59],> 100 µM
same,GI50,[28],> 100 µM
same,TGI,[28],> 100 µM
same,GI50,[30],> 100 µM
same,TGI,[30],> 100 µM
same,GI50,[60],> 100 µM
same,TGI,[60],> 100 µM
same,GI50,[31],> 100 µM
same,TGI,[31],> 100 µM
same,GI50,[32],> 100 µM
same,TGI,[32],> 100 µM
same,GI50,[67],> 100 µM
same,TGI,[67],> 100 µM
same,GI50,[33],> 100 µM
same,TGI,[33],> 100 µM
same,GI50,[34],> 100 µM
same,TGI,[34],> 100 µM
same,GI50,[61],> 100 µM
same,TGI,[61],> 100 µM
same,GI50,[68],> 100 µM
same,TGI,[68],> 100 µM
same,GI50,[63],> 100 µM
same,TGI,[63],> 100 µM
same,GI50,[36],25.8 µM
same,TGI,[36],> 100 µM
